Reference: US20250114338A1, “TETRAHYDRO-PYRIDO[3,4-b]INDOLE ESTROGEN RECEPTOR MODULATORS AND USES THEREOF” (Genentech, Inc., priority 2014, published 2025)

Test system: ER-alpha MCF7
Experiment: ER-alpha MCF7 HCS EC50; stated as measured by in vitro cell proliferation assays of Examples 902 and 903
Type: cell-based
Details: Homo sapiens, MCF7, MCF7 cells; Table 2
Method in brief: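 MCF7 cells seeded 1000-2000 cells/well for 16 h, then treated with nine-point 1:2 DMSO dilution series in quadruplicate at 37 °C, 5% CO2 for 4 days. Viable cells quantified by CellTiter-Glo ATP luminescence; EC50 calculated. Controls: fulvestrant at final 100 nM, DMSO 0.2% v/v.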

SMILES	EC50
C[C@@H]1Cc2c([nH]c3ccccc23)[C@@H](c2ccc(OCCN3CC(CF)C3)cc2)N1S(=O)(=O)N(C)C [Example 329, (1R,3R)-1-[4-[2-[3-(fluoromethyl)azetidin-1-yl]ethoxy]phenyl]-N,N,3-trimethyl-1,3,4,9-tetrahydropyrido[3,4-b]indole-2-sulfonamide]	1 nM
C[C@@H]1Cc2c([nH]c3ccccc23)[C@@H](c2ccc(OC3CN(CCCF)C3)cc2)N1S(C)(=O)=O [Example 330, (1R,3R)-1-[4-[1-(3-fluoropropyl)azetidin-3-yl]oxyphenyl]-3-methyl-2-methylsulfonyl-1,3,4,9-tetrahydropyrido[3,4-b]indole]	2 nM
C[C@@H]1Cc2c([nH]c3ccccc23)[C@@H](c2c(F)cc(OC3CN([C@H]4C[C@H](O)C4)C3)cc2F)N1CC(C)(C)F [Example 331, 3-[3-[3,5-difluoro-4-[(1R,3R)-2-(2-fluoro-2-methyl-propyl)-3-methyl-1,3,4,9-tetrahydropyrido[3,4-b]indol-1-yl]phenoxy]azetidin-1-yl]cyclobutanol]	0.236 nM
CC(C)[S@+]([O-])N1[C@H](c2ccc(OCCN3CC(CF)C3)cc2)c2[nH]c3ccccc3c2C[C@H]1C [Example 332, (1R,3R)-1-(4-(2-(3-(fluoromethyl)azetidin-1-yl)ethoxy)phenyl)-2-((S)-isopropylsulfinyl)-3-methyl-2,3,4,9-tetrahydro-1H-pyrido[3,4-b]indole]	8 nM
CC(C)[S@@+]([O-])N1[C@H](c2ccc(OCCN3CC(CF)C3)cc2)c2[nH]c3ccccc3c2C[C@H]1C [Example 333, (1R,3R)-1-(4-(2-(3-(fluoromethyl)azetidin-1-yl)ethoxy)phenyl)-2-((R)-isopropylsulfinyl)-3-methyl-2,3,4,9-tetrahydro-1H-pyrido[3,4-b]indole]	48 nM
C[C@@H]1Cc2c([nH]c3ccccc23)[C@@H](c2c(F)cc(OC3CN([C@H]4C[C@@H](O)C4)C3)cc2F)N1CC(C)(C)F [Example 334, (1S,3s)-3-(3-(3,5-difluoro-4-((1R,3R)-2-(2-fluoro-2-methylpropyl)-3-methyl-2,3,4,9-tetrahydro-1H-pyrido[3,4-b]indol-1-yl)phenoxy)azetidin-1-yl)cyclobutanol]	0.13 nM
C[C@@H]1Cc2c([nH]c3ccccc23)[C@@H](c2c(F)cc(OC3CN(CCCCCF)C3)cc2F)N1CC(C)(C)F [Example 335, (1R,3R)-1-[2,6-difluoro-4-[1-(5-fluoropentyl)azetidin-3-yl]oxy-phenyl]-2-(2-fluoro-2-methyl-propyl)-3-methyl-1,3,4,9-tetrahydropyrido[3,4-b]indole]	0.442 nM
C[C@@H]1Cc2c([nH]c3ccccc23)[C@@H](c2cc(F)c(OC3CN(CCCF)C3)c(F)c2)N1CC(C)(C)F [Example 336, (1R,3R)-1-[3,5-difluoro-4-[1-(3-fluoropropyl)azetidin-3-yl]oxy-phenyl]-2-(2-fluoro-2-methyl-propyl)-3-methyl-1,3,4,9-tetrahydropyrido[3,4-b]indole]	0.263 nM
C[C@@H]1Cc2c([nH]c3ccccc23)[C@@H](c2c(F)cc(OC3CN(CCCCF)C3)cc2F)N1CC(C)(C)F [Example 337, (1R,3R)-1-[2,6-difluoro-4-[1-(4-fluorobutyl)azetidin-3-yl]oxy-phenyl]-2-(2-fluoro-2-methyl-propyl)-3-methyl-1,3,4,9-tetrahydropyrido[3,4-b]indole]	0.387 nM
C[C@@H]1Cc2c([nH]c3ccccc23)[C@@H](c2cc(F)c(OC3CN(CCCCCF)C3)c(F)c2)N1CC(C)(C)F [Example 338, (1R,3R)-1-[3,5-difluoro-4-[1-(5-fluoropentyl)azetidin-3-yl]oxy-phenyl]-2-(2-fluoro-2-methyl-propyl)-3-methyl-1,3,4,9-tetrahydropyrido[3,4-b]indole]	1 nM
C[C@@H]1Cc2c([nH]c3ccccc23)[C@@H](c2cc(F)c(OC3CN(CCCF)C3)cc2F)N1CC(C)(C)F [Example 339, (1R,3R)-1-[2,5-difluoro-4-[1-(3-fluoropropyl)azetidin-3-yl]oxy-phenyl]-2-(2-fluoro-2-methyl-propyl)-3-methyl-1,3,4,9-tetrahydropyrido[3,4-b]indole]	1 nM
C[C@@H]1Cc2c([nH]c3ccccc23)[C@@H](c2c(F)cc(NC3CN(CCCF)C3)cc2F)N1CC(F)(F)CO [Example 340, 3-[(1R,3R)-1-[2,6-difluoro-4-[[1-(3-fluoropropyl)azetidin-3-yl]amino]phenyl]-3-methyl-1,3,4,9-tetrahydropyrido[3,4-b]indol-2-yl]-2,2-difluoro-propan-1-ol]	0.203 nM
C[C@@H]1Cc2c([nH]c3ccccc23)[C@@H](c2cnc(OC3CN(CCCF)C3)cn2)N1CC(C)(C)F [Example 342, (1S,3R)-2-(2-fluoro-2-methylpropyl)-1-(5-((1-(3-fluoropropyl)azetidin-3-yl)oxy)pyrazin-2-yl)-3-methyl-2,3,4,9-tetrahydro-1H-pyrido[3,4-b]indole]	0.619 nM
C[C@@H]1Cc2c([nH]c3ccccc23)[C@@H](c2c(F)cc(OC3(C)CN(CCCF)C3)cc2F)N1CC(C)(C)F [Example 343, (1R,3R)-1-(2,6-difluoro-4-((1-(3-fluoropropyl)-3-methylazetidin-3-yl)oxy)phenyl)-2-(2-fluoro-2-methylpropyl)-3-methyl-2,3,4,9-tetrahydro-1H-pyrido[3,4-b]indole]	0.2 nM
C[C@@H]1Cc2c([nH]c3ccccc23)[C@@H](c2ccc(OC3CN(CCCF)C3)cc2C#N)N1CC(C)(C)F [Example 344, 2-[(1R,3R)-2-(2-fluoro-2-methyl-propyl)-3-methyl-1,3,4,9-tetrahydropyrido[3,4-b]indol-1-yl]-5-[1-(3-fluoropropyl)azetidin-3-yl]oxy-benzonitrile]	0.347 nM
C[C@@H]1Cc2c([nH]c3ccccc23)[C@@H](c2ccn(CCCN3CC(CF)C3)c(=O)c2)N1CC(C)(C)F [Example 345, 4-((1R,3R)-2-(2-fluoro-2-methylpropyl)-3-methyl-2,3,4,9-tetrahydro-1H-pyrido[3,4-b]indol-1-yl)-1-(3-(3-(fluoromethyl)azetidin-1-yl)propyl)pyridin-2(1H)-one]	12.3 nM
C[C@@H]1Cc2c([nH]c3ccccc23)[C@@H](c2ccc(C(=O)C3CN(CCCF)C3)cc2)N1CC(C)(C)F [Example 346, [4-[(1R,3R)-2-(2-fluoro-2-methyl-propyl)-3-methyl-1,3,4,9-tetrahydropyrido[3,4-b]indol-1-yl]phenyl]-[1-(3-fluoropropyl)azetidin-3-yl]methanone]	0.399 nM
C[C@H](CN1[C@H](c2c(F)cc(OCCN3CC(CF)C3)cc2F)c2[nH]c3ccccc3c2C[C@H]1C)C(N)=O [Example 347, (R)-3-((1R,3R)-1-(2,6-difluoro-4-(2-(3-(fluoromethyl)azetidin-1-yl)ethoxy)phenyl)-3-methyl-1,3,4,9-tetrahydro-2H-pyrido[3,4-b]indol-2-yl)-2-methylpropanamide]	14 nM
C[C@H](CN1[C@H](c2c(F)cc(OC3CN(CCCF)C3)cc2F)c2[nH]c3ccccc3c2C[C@H]1C)C(=O)O [Example 348, (R)-3-((1R,3R)-1-(2,6-difluoro-4-((1-(3-fluoropropyl)azetidin-3-yl)oxy)phenyl)-3-methyl-1,3,4,9-tetrahydro-2H-pyrido[3,4-b]indol-2-yl)-2-methylpropanoic acid]	1 nM
C[C@@H]1Cc2c([nH]c3ccccc23)[C@@H](c2c(F)cc(OC3CN(CCCF)C3)cc2F)N1C[C@H](C)C(=O)O [Example 349, (S)-3-((1R,3R)-1-(2,6-difluoro-4-((1-(3-fluoropropyl)azetidin-3-yl)oxy)phenyl)-3-methyl-1,3,4,9-tetrahydro-2H-pyrido[3,4-b]indol-2-yl)-2-methylpropanoic acid]	2.03 nM
CC(CN1C(C)Cc2c([nH]c3ccccc23)C1c1c(F)cc(OC2CN(CCCF)C2)cc1F)C(=O)O (centres unmarked) [Example 351, 3-[1-[2,6-difluoro-4-[1-(3-fluoropropyl)azetidin-3-yl]oxy-phenyl]-3-methyl-1,3,4,9-tetrahydropyrido[3,4-b]indol-2-yl]-2-methyl-propanoic acid]	33 nM
C[C@@H]1Cc2c([nH]c3ccccc23)[C@@H](c2c(F)cc(NCCN3CC(CF)C3)cc2F)N1C[C@@](C)(F)CO [Example 352, (R)-3-((1R,3R)-1-(2,6-difluoro-4-((2-(3-(fluoromethyl)azetidin-1-yl)ethyl)amino)phenyl)-3-methyl-1,3,4,9-tetrahydro-2H-pyrido[3,4-b]indol-2-yl)-2-fluoro-2-methylpropan-1-ol]	0.685 nM
C[C@@H]1Cc2c([nH]c3ccccc23)[C@@H](c2c(F)cc(NCCN3CC(CF)C3)cc2F)N1C[C@](C)(F)CO [Example 353, (S)-3-((1R,3R)-1-(2,6-difluoro-4-((2-(3-(fluoromethyl)azetidin-1-yl)ethyl)amino)phenyl)-3-methyl-1,3,4,9-tetrahydro-2H-pyrido[3,4-b]indol-2-yl)-2-fluoro-2-methylpropan-1-ol]	0.033 nM
C[C@H](CN1[C@H](c2c(F)cc(NC3CN(CCCF)C3)cc2F)c2[nH]c3ccccc3c2C[C@H]1C)C(=O)O [Example 354, (2R)-3-[(1R,3R)-1-[2,6-difluoro-4-[[1-(3-fluoropropyl)azetidin-3-yl]amino]phenyl]-3-methyl-1,3,4,9-tetrahydropyrido[3,4-b]indol-2-yl]-2-methyl-propanoic acid]	1 nM
C[C@H]1Cc2c([nH]c3ccc(F)cc23)[C@H](c2c(F)cc(OCCN3CC(CF)C3)cc2F)N1CC(F)(F)F [Example 355, (1S,3S)-1-(2,6-difluoro-4-(2-(3-(fluoromethyl)azetidin-1-yl)ethoxy)phenyl)-6-fluoro-3-methyl-2-(2,2,2-trifluoroethyl)-2,3,4,9-tetrahydro-1H-pyrido[3,4-b]indole]	29.2 nM
C[C@@H]1Cc2c([nH]c3ccc(F)cc23)[C@@H](c2c(F)cc(OCCN3CC(CF)C3)cc2F)N1CC(F)(F)F [Example 356, (1R,3R)-1-(2,6-difluoro-4-(2-(3-(fluoromethyl)azetidin-1-yl)ethoxy)phenyl)-6-fluoro-3-methyl-2-(2,2,2-trifluoroethyl)-2,3,4,9-tetrahydro-1H-pyrido[3,4-b]indole]	0.509 nM
